How the values were obtained:
[1] = Illumination stability experiment (HPLC content); assay type: physicochemical; details: visible light 5000 ± 500 lx, ultraviolet light 250 μW/cm^2
Protocol: Test Example 2. Illumination Stability Experiment
• Stability chamber, model: ICH-110L, Memmert, USA; • High performance liquid chromatograph (HPLC), model: 1260, Agilent.
• Detection wavelength: 220 nM, 254 nM • Chromatographic column: Agilent ZORBAX SB-C8 4.6×250 mm, 5 μm • Mobile phase A: water • Mobile phase B: acetonitrile • Flow rate: 1.0 mL/min • Column temperature: 35° C. • Injection volume: 10 μL
• 1. A test compound was weighed out and placed into the stability chamber; • 2. a light source was turned on, with visible light of 5000±500 lx and ultraviolet light of 250 μW/cm^2; • 3. sampling was performed at 0 h, 8 h, 24 h, and 72 h, and the sample was dissolved in an aqueous acetonitrile solution with a volume fraction of 50%; • 4. HPLC was used for detection, and the content was determined by using the area normalization method.

AHR protein = target: T1, AHR protein (Homo sapiens, UniProt P35869); assay: Luciferase reporter gene assay (AHR agonistic activity); assay type: cell-based; details: HepG2-Lucia AHR cells, 24 h incubation; read-out: Luciferase-labeled human hepatoma cells (HepG2-Lucia) AHR agonist EC50
T1 construct: Human hepatoma cells HepG2-Lucia expressing AHR and luciferase; host or cells: HepG2-Lucia AHR (human hepatoma)
T1 sequence (P35869 11-848): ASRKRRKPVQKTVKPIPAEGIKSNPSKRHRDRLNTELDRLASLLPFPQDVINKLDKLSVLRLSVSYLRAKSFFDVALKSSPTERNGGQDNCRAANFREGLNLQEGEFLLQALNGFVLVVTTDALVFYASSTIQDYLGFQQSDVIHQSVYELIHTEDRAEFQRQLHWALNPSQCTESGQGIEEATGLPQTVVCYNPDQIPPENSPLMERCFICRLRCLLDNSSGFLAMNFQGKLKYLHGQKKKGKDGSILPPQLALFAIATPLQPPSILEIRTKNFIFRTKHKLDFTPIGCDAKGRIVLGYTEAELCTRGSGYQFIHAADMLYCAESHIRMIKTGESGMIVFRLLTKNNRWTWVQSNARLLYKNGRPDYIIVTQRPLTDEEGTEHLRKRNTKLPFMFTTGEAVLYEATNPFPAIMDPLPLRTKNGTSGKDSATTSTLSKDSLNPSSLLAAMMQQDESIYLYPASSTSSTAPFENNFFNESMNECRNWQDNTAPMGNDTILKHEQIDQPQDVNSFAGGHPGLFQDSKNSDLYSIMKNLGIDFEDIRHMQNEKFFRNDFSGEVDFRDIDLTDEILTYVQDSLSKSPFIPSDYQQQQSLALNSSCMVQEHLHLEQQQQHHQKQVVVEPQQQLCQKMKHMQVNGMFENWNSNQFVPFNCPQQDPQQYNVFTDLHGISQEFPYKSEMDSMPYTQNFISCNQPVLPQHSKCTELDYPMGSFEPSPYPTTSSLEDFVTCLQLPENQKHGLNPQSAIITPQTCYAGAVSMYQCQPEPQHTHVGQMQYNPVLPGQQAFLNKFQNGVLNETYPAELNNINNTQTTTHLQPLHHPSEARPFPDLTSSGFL
Protocol: Luciferase Reporter Gene Assay
In this test example, a luciferase reporter gene assay was performed to assay the agonistic activity effect of the compounds of the present disclosure on AHR protein.
• Human hepatoma cells HepG2-Lucia expressing AHR and luciferase were purchased from InvivoGen with the catalog number of hpgl-ahr;
• 1. HepG2-Lucia AHR cells were cultured in an EMEM medium containing 10% inactivated fetal bovine serum, 1×NEAA, penicillin-streptomycin, and 100 μg/mL Zeocin (bleomycin). The culture temperature was 37° C. and the concentration of carbon dioxide was 5%. • 2. After the cells were grown to about 80% confluency, the cells were digested, centrifuged, resuspended, and counted. The cells were seeded into a 384-well plate at 40 μL/well. • 3. Different concentrations of the test compounds were added by using ECHO at 40 nL/well. • 4. The 384-well plate to which the compounds were added was incubated in the incubator for 24 h. • 5. The supernatant was collected, a QUANTI-Luc Gold detection reagent was added, and the luminescence signal values were read by using the multifunctional microplate reader.

Molecule | Liquid chromatography content (220 nM, %) ([1]; batch 1, 0 h) | Liquid chromatography content (220 nM, %) ([1]; batch 1, 8 h) | Liquid chromatography content (220 nM, %) ([1]; batch 1, 24 h) | Liquid chromatography content (220 nM, %) ([1]; batch 1, 72 h) | Liquid chromatography content (220 nM, %) ([1]; batch 2, 0 h) | Liquid chromatography content (220 nM, %) ([1]; batch 2, 8 h) | Liquid chromatography content (220 nM, %) ([1]; batch 2, 24 h) | Liquid chromatography content (220 nM, %) ([1]; batch 2, 72 h) | EC50 (AHR protein)
CC(C)c1c(O)cc(/C=C/c2ccccc2)cc1O [Benvitimod, reference compound] | 99.87% | 85.14% | 74.20% | 69.53% | – | – | – | – | –
CC(C)c1c(O)cc(/C=C/c2cccc(F)n2)cc1O [Comparative Example 1, reference compound] | – | – | – | – | 96.99% | 85.98% | 82.13% | 72.30% | –
CC(C)c1c(O)cc(/C=C/c2ccccc2)c(Cl)c1O [Compound 1, (E)-4-Chloro-2-isopropyl-5-styrylbenzene-1,3-diol] | – | – | – | – | – | – | – | – | 238 nM
Cc1c(/C=C/c2ccccc2)cc(O)c(C(C)C)c1O [Compound 2, (E)-2-Isopropyl-4-methyl-5-styrylbenzene-1,3-diol] | – | – | – | – | – | – | – | – | 177 nM
CC(C)c1c(O)cc(/C=C/c2ccccc2)c(F)c1O [Compound 3, (E)-4-Fluoro-2-isopropyl-5-styrylbenzene-1,3-diol] | 97.25% | 97.33% | 96.06% | 97.71% | – | – | – | – | 57 nM
CC(C)c1c(O)cc(/C=C/c2ccccc2)c(Br)c1O [Compound 4, (E)-4-Bromo-2-isopropyl-5-styrylbenzene-1,3-diol] | – | – | – | – | – | – | – | – | 219 nM
CC(C)c1c(O)cc(/C=C/c2ccc(F)cc2)c(F)c1O [Compound 5, (E)-4-Fluoro-5-(4-fluorostyryl)-2-isopropylbenzene-1,3-diol] | – | – | – | – | 99.30% | 98.80% | 99.22% | 99.06% | 6 nM
CC(C)c1c(O)cc(/C=C/c2ccccc2F)c(F)c1O [Compound 6, (E)-4-Fluoro-5-(2-fluorostyryl)-2-isopropylbenzene-1,3-diol] | – | – | – | – | 98.31% | 98.37% | 98.27% | 98.68% | 10 nM
CC(C)c1c(O)cc(/C=C/c2ncccc2F)c(F)c1O [Compound 7, (E)-4-Fluoro-5-[2-(3-fluoropyridin-2-yl)vinyl]-2-isopropylbenzene-1,3-diol] | – | – | – | – | 98.70% | 95.84% | 91.56% | 89.57% | 30 nM
CC(C)c1c(O)cc(/C=C/c2ncccc2Cl)c(F)c1O [Compound 8, (E)-5-[2-(3-Chloropyridin-2-yl)vinyl]-4-fluoro-2-isopropylbenzene-1,3-diol] | – | – | – | – | – | – | – | – | 13 nM
CC(C)c1c(O)cc(/C=C/c2ccc(F)cn2)c(F)c1O [Compound 9, (E)-4-Fluoro-5-[2-(5-fluoropyridin-2-yl)vinyl]-2-isopropylbenzene-1,3-diol] | – | – | – | – | 99.46% | 98.65% | 97.46% | 92.06% | 20 nM
CC(C)c1c(O)cc(/C=C/c2cccc(F)n2)c(F)c1O [Compound 14, (E)-4-Fluoro-5-[2-(6-fluoropyridin-2-yl)vinyl]-2-isopropylbenzene-1,3-diol] | – | – | – | – | 88.32% | 87.83% | 88.31% | 84.37% | 27 nM
CC(C)c1c(O)cc(/C=C/c2ccncc2)c(F)c1O [Compound 18, (E)-4-Fluoro-2-isopropyl-5-[2-(pyridin-4-yl)vinyl]benzene-1,3-diol] | – | – | – | – | – | – | – | – | 66 nM
(E)-4-Fluoro-2-isopropyl-5-[2-(pyridin-2-yl)vinyl]benzene-1,3-diol [Compound 16] | – | – | – | – | 97.58% | 97.52% | 96.88% | 96.81% | –

— US20260091027A1, “STILBENE DERIVATIVES AS WELL AS PREPARATION METHOD THEREFOR AND USE THEREOF” (THEDERMA SHANGHAI CO., LTD., priority 2022, published 2026)
